Results reported in patent US20250368623A1, “PYRIDAZINONE-DERIVED COMPOUNDS FOR THE MODULATION OF MYC AND FOR MEDICAL USES” (GENETIC INTELLIGENCE, INC, priority 2022, published 2025).

Experiments:
JeKo-1 = experiment: CCK-8 cell viability assay, JeKo-1; type: cell-based; conditions: Homo sapiens; CCK-8, JeKo-1, 2-day or 3-day incubation, cytotoxic effect
Method: The effect of test compounds on cell viability is determined using the CCK-8 assay kit (Dojindo CK04-1000) according to the following protocol. The human cancer cell lines (e.g., A549, HepG2, JeKo-1, MDA-MB-231, etc.) and non-cancer human cell lines (e.g., HEK-293, HaCaT, etc.), are seeded at 20,000 cells per well in a 96-well plate. After 1 day, the cells are treated with test compounds at various final concentrations (e.g., 10 nM, 31.6 nM, 100 nM, 316 nM, 1 μM, 3.16 μM, 10 μM, 20 μM, etc.). After a 2-day or 3-day incubation period, 10 μL of CCK-8 solution, which contains the WST-8 dye, is added to each well according to the kit manufacturer's protocol. After incubation for 1-4 hours, the absorbance at 450 nm is measured using a microplate reader. The absorbance at 450 nm measures the amount of WST-8 that is reduced to WST-8 formazan by cellular dehydrogenases, which is directly proportional to the number of living cells. The cytotoxic effect of test compounds at different concentrations is calculated by subtracting from 1 the ratio of absorbance of the compound-treated sample at 450 nm to that of the no-compound, solvent only (DMSO)-treated sample. A higher number indicates a greater cytotoxic effect of the test compound on cells (corresponding to a greater reduction in cellular dehydrogenase activity), and vice versa. The IC50 values for the cytotoxic effect of each test compound in A549, HepG2, JeKo-1, and/or MDA-MB-231 cells are determined by plotting a dose-response curve to calculate the concentration of test compound that produces half of the maximum cytotoxic effect. The cytotoxic effect and IC50 of test compounds are also measured in a non-cancer human cell line (e.g., HEK-293, and/or HaCaT) as a proxy for healthy cells to determine the therapeutic window of the test compounds (i.e., the concentration range at which the test compounds selectively kill cancer cells but not healthy cells). The therapeutic index of a test compound is defined herein as its IC50 in HEK-293 cells divided by its IC50 in HepG2 cells.

MYC protein = experiment: MYC HTRF assay, MYC protein level in human cell lines; type: cell-based; conditions: about 20 μM, 2-day incubation, human cell lines (e.g., A549, HepG2), vs DMSO-treated sample
Method: The MYC homogenous time-resolved fluorescence (HTRF) assay kit (CisBio/Perkin Elmer 63ADK053PEG) is used to quantify the level of MYC protein in human cell lines (e.g., A549, HepG2) following treatment with test compounds, according to the following protocol. Human cells cultured in DMEM-10% FBS media are seeded at 20,000 cells per well in a 96-well plate. After 1 day, the cells are treated with test compounds at a final concentration of about 20 μM. After a 2-day incubation period, the supernatant is removed from the wells and the HTRF assay is carried out according to the kit manufacturer's protocol. In brief, lysis buffer #4 is added to create cell lysates. 10 μL of cell lysate is added to 10 μL of premixed antibody solution (anti-human My c-Eu cryptate antibody and anti-human Myc-d2 antibody) prepared in detection buffer #3 in a 384-well low-volume white-walled plated. After 3 h of incubation, fluorescence readings are taken at the emission wavelengths of donor and acceptor fluorophores (620 nm and 665 nm respectively) using a HTRF-compatible plate reader. The ratio of acceptor and donor fluorescence emission signals for each sample is calculated by dividing the fluorescence signal at 665 nm by the signal at 620 nm, and further normalized by dividing with the concentration of total protein in that sample as determined by the BCA assay. The values so obtained are presented as a percentage of that of the no-compound, solvent only (DMSO)-treated samples. A lower percentage of MYC protein in a sample with respect to the DMSO-treated sample indicates greater percentage reduction in MYC protein level due to the test compound, and vice versa.

Cc1nc(C)c(-c2ccc(=O)n(CC3CCN(c4ncnc5ncccc45)CC3)n2)s1 [6-(2,4-dimethylthiazol-5-yl)-2-((1-(pyrido[2,3-d]pyrimidin-4-yl)piperidin-4-yl)methyl)pyridazin-3(2H)-one]
IC50 (JeKo-1): 400 nM
% reduction of MYC protein (MYC protein): 72%
